# Legend:
# HCT116 = HCT116 model, compared to controls
# SKOV3ip1 [1] = test: Orthotopic ovarian cancer mouse model (SKOV3ip1); assay type: in vivo, female athymic nude mice; details: compared to control group
# Protocol: (§1) Orthotopic mouse model. The 10- to 12-week-old female athymic nude mice were obtained from the US National Cancer Institute. All experiments were approved by the Institutional Animal Care and Use Committee of the M.D. Anderson Cancer Center. […] Tumor cells for appropriate ovarian cancer mouse models (HeyA8, 2.5×105; SKOV3ip1 and […], 1.0×106) were injected intraperitoneally into mice on day 0. Mice randomized into appropriate groups on day 7 when tumors had been established and were palpable. After 3-5 weeks of treatment (depending on the model), mice were necropsied and tumors were harvested. Small interfering RNA (siRNA). Specific siRNAs targeted against Stat3-7 (target sequence [NT] ID NO:1), FAK (target Sequence [NT] ID NO:2) and control siRNA targeted against (target sequence:[NT] ID NO:3) were purchased from Sigma-Aldrich Corporation, (Woodland, Tex.). These were incorporated into r-HDL nanoparticles, as previously described (Mooberry et al., 2009). 5 ug of r-HDL incorporated siRNA was injected intraperitoneally twice weekly. For in vitro studies, mRNA-specific or nonspecific (control) siRNA was incorporated into Qiagen RNAiFect transfection agent (1 ug of siRNA to 3 uL of RNAiFect). […] Cells were first transfected with STAT3 siRNA. Twenty-four hours after transfection, media was changed to standard siRNA-free media and cells were treated with docetaxel (see below for details). […]
# HeyA8 = test: Orthotopic mouse model of ovarian carcinoma (HeyA8); assay type: in vivo, female athymic nude mice
# Protocol: Orthotopic mouse model. The 10- to 12-week-old female athymic nude mice were obtained from the US National Cancer Institute. All experiments were approved by the Institutional Animal Care and Use Committee of the M.D. Anderson Cancer Center. […] Tumor cells for appropriate ovarian cancer mouse models (HeyA8, 2.5×105; SKOV3ip1 and […], 1.0×106) were injected intraperitoneally into mice on day 0. Mice randomized into appropriate groups on day 7 when tumors had been established and were palpable. After 3-5 weeks of treatment (depending on the model), mice were necropsied and tumors were harvested. Small interfering RNA (siRNA). Specific siRNAs targeted against Stat3-7 (target sequence [NT] ID NO:1), FAK (target Sequence [NT] ID NO:2) and control siRNA targeted against (target sequence:[NT] ID NO:3) were purchased from Sigma-Aldrich Corporation, (Woodland, Tex.). These were incorporated into r-HDL nanoparticles, as previously described (Mooberry et al., 2009). 5 ug of r-HDL incorporated siRNA was injected intraperitoneally twice weekly. For in vitro studies, mRNA-specific or nonspecific (control) siRNA was incorporated into Qiagen RNAiFect transfection agent (1 ug of siRNA to 3 uL of RNAiFect). […] Cells were first transfected with STAT3 siRNA. Twenty-four hours after transfection, media was changed to standard siRNA-free media and cells were treated with docetaxel (see below for details). Reagents. Docetaxel was purchased from Sanofi-Aventis (Bridgewater, N.J.). […] These cells were treated with docetaxel after STAT3 gene was silenced using siRNA (as described above) for 48 hours. In In vivo experiments, appropriate groups received treatment with docetaxel starting on day 7, once a week, intraperitoneally at: 50 ug/mouse (HeyA8 and HeyA8-MDR) and 30 ug/mouse (SKOV3). […] Statistics. Continuous variables were compared with the use of the Student t test (between 2 groups) or analysis of variance (for all groups) if normally distributed, and with the use of the Mann-Whitney rank sum test or Kruskal Wallis test (for all groups) if nonparametric. […]
# SKOV3ip1 [2] = test: TUNEL staining of tumor tissues from the SKOV3ip1 model; assay type: in vivo, female athymic nude mice; details: SKOV3ip1 model tumors, compared to control group
# Protocol: TUNEL Staining. Assessment of apoptosis, frozen sections stained by terminal deoxynucleotidyl transferase-mediated deoxyuridine triphosphate nick-end labeling (TUNEL; green; Promega, Madison, Wis.), was performed as described previously (Shahzad et al., 2009). The samples were counterstained with Hoechst 1:10,000 (Thaker et al., 2005). An apoptotic body was represented by green fluorescence. To quantify apoptotic cells, the number of TUNEL positive cells was calculated in 10 random fields at the original magnification 200× from five separate slides (per group) and averaged.
# STAT3 is known to increase cell survival and inhibit apoptosis (Shen et al., 2001; Catlett-Falcone et al., 1999; Zushi et al., 1998; Masude et al., 2002). To assess whether STAT3 knockdown would enhance the efficacy of docetaxel treatment by enhancing its ability to produce apoptosis., fluorescents labeled TUNEL staining was performed on fresh frozen tumor tissues from the SKOV3ip1 ovarian cancer treatment model.
# [3] = tested on: tumor associated angiogenesis; test: CD31 staining, microvessel density (MVD) of tumor samples; details: compared with control siRNA/rHDL treatment
# Protocol: Paraffin sections for CD31 (1:800 dilution, Pharmingen), were stained at 4° C. […] To quantify MVD, five random 0.159 mm2 fields at 100× magnification for each tumor were examined, and microvessels within those fields were counted (Thaker et al., 2005).
# In order to ascertain the effects of STAT3 silencing on tumor associated angiogenesis, CD 31 staining on fresh frozen tumor samples from all four treatment groups (FIG. 7) was determined along with microvessel density (MVD).
# [4] = tested on: SKOV3ip1 ovarian cancer cells; test: Annexin-V PE/7AAD flow cytometry apoptosis assay; assay type: cell-based; details: docetaxel 4 nM, 48 hours after docetaxel treatment
# Protocol: All in vitro experiments were conducted using 4.0 nM concentration of docetaxel in SKOV3ip1 ovarian cancer cells. These cells were treated with docetaxel after STAT3 gene was silenced using siRNA (as described above) for 48 hours.
# Additionally, to determine the effects of in vitro STAT3 targeting on apoptosis, STAT3 gene was silenced in SKOV3ip1 ovarian cancer cells using an siRNA targeted against STAT3 and followed by treatment with docetaxel (4 nM). 48 hours after docetaxel treatment, the extent of cell death secondary to apoptosis was analyzed after Annexin-V PE/7AAD staining with flow cytometry.
# SKOV3ip1 [5] = test: Ki-67 staining (cell proliferation index) of tumors from SKOV3ip1 model; assay type: in vivo, female athymic nude mice; details: compared with control group
# From the text: Effect of STAT3 targeting on tumor microenvironment. […] The combination of STAT3 siRNA/rHDL and docetaxel reduced tumor cell proliferation by 48% (P<0.01) compared with control group (FIG. 7).
# HeyA8MDR = test: Multi-drug resistant model of ovarian carcinoma (HeyA8MDR); assay type: in vivo, female athymic nude mice; details: compared to control siRNA/rHDL
# Protocol: as §1
# [6] = tested on: SKOV3ip1 ovarian cancer cells; test: MTT assay, docetaxel after STAT3 siRNA transfection; assay type: cell-based; details: SKOV3ip1 cells transfected with STAT3 siRNA, docetaxel in escalating doses, compared to docetaxel treatment
# Protocol: Small interfering RNA (siRNA). Specific siRNAs targeted against Stat3—7 (target sequence 5′-[…]-3′; SEQ ID NO:1), FAK (target Sequence 5′-[…]-3′; SEQ ID NO:2) and control siRNA targeted against (target sequence:5′-[…]-3′; SEQ ID NO:3) were purchased from Sigma-Aldrich Corporation, (Woodland, Tex.). These were incorporated into r-HDL nanoparticles, as previously described (Mooberry et al., 2009). 5 ug of r-HDL incorporated siRNA was injected intraperitoneally twice weekly. For in vitro studies, mRNA-specific or nonspecific (control) siRNA was incorporated into Qiagen RNAiFect transfection agent (1 ug of siRNA to 3 uL of RNAiFect). Only 70% to 80% confluent SKOV3ip1 cells were utilized. Cells were first transfected with STAT3 siRNA. Twenty-four hours after transfection, media was changed to standard siRNA-free media and cells were treated with docetaxel (see below for details).
# MTT assay. SKOV3 cell (1.5×105) cells were plated in each well, using 6 well plates. Cells were then transfected with control or STAT3 siRNA overnight. […] Forty-eight hours after docetaxel treatment, the number of viable cells was determined by adding 50 μL of 0.15% 3-(4,5-dimethylthiazol-2-yl)-2,5-diphenyl tetrazolium bromide (MTT; Sigma) to each well. […] Viable cells were quantified by measuring the absorbance at 570 nm using a uQuant plate reader (Bio-Tek, Winooski, Vt.). […]
# Ovarian Tumor Cells = test: Gene expression profile after STAT3 knockdown (Illumina microarray / quantitative RT-PCR); assay type: cell-based
# Protocol: Effect of STAT3 Silencing on Gene Expression profile of Ovarian Tumor Cells. STAT3 knockdown using siRNA targeted against STAT3, microarray analysis using Illumina platform was performed There were 460 genes that were identified to have differential expression levels between the control and STAT3 targeted group. Data was then analyzed using ingenuity-pathway assistance and 32 genes that were involved in cell survival and apoptosis were chosen (Table 1).
# [7] = STAT3 targeting study, compared to the control group
compound,measurement,setting,value
O=C1[O][Pt]2([NH][C@@H]3CCCC[C@H]3[NH]2)[O]C1=O [oxaliplatin],reduction in tumor growth,HCT116,55%
CC(=O)O[C@@]12CO[C@@H]1C[C@H](O)[C@@]1(C)C(=O)[C@H](O)C3=C(C)[C@@H](OC(=O)[C@H](O)[C@@H](NC(=O)OC(C)(C)C)c4ccccc4)C[C@@](O)([C@@H](OC(=O)c4ccccc4)[C@H]21)C3(C)C [docetaxel],reduction in tumor growth,SKOV3ip1 [1],78%
same,reduction in tumor growth,HeyA8; FAK targeting study,74%
same,reduction in tumor growth,HeyA8; [7],62%
same,reduction in tumor metastasis,HeyA8; [7],77%
same,increase in tumor cell apoptosis (TUNEL),SKOV3ip1 [2],12 fold
same,"reduction in MVD (tumor associated vessel counts, CD31)",[3],66%
same,increase in apoptosis compared to control,[4],5.2 fold
same,reduction in tumor cell proliferation (Ki-67),SKOV3ip1 [5],30%
same,reduction in tumor growth,HeyA8MDR,17%
"STAT3 siRNA: siRNA against Stat3 (SEQ ID NO:1), transfected in vitro with Qiagen RNAiFect transfection agent (GCCUCUCUGCAGAAUUCAA; listed as RNA, chemistry not given here)",effect of STAT3 silencing on IC 50 values of docetaxel,[6],lowered the IC 50 values of docetaxel significantly
same,Fold Change,"Ovarian Tumor Cells; gene ALOX5, Stat3 silencing vs control",1.43 fold
same,Fold Change,"Ovarian Tumor Cells; gene ATF6, Stat3 silencing vs control",0.44 fold
same,Fold Change,"Ovarian Tumor Cells; gene BAX, Stat3 silencing vs control",1.49 fold
same,Fold Change,"Ovarian Tumor Cells; gene BCL6, Stat3 silencing vs control",0.72 fold
same,Fold Change,"Ovarian Tumor Cells; gene BEX2, Stat3 silencing vs control",1.46 fold
same,Fold Change,"Ovarian Tumor Cells; gene CAV1, Stat3 silencing vs control",0.75 fold
same,Fold Change,"Ovarian Tumor Cells; gene CD24, Stat3 silencing vs control",0.73 fold
same,Fold Change,"Ovarian Tumor Cells; gene CDCP1, Stat3 silencing vs control",0.73 fold
same,Fold Change,"Ovarian Tumor Cells; gene CTGF, Stat3 silencing vs control",0.62 fold
same,Fold Change,"Ovarian Tumor Cells; gene CYR61, Stat3 silencing vs control",0.68 fold
same,Fold Change,"Ovarian Tumor Cells; gene DKK1, Stat3 silencing vs control",0.72 fold
same,Fold Change,"Ovarian Tumor Cells; gene DUSP1, Stat3 silencing vs control",0.74 fold
same,Fold Change,"Ovarian Tumor Cells; gene ETS2, Stat3 silencing vs control",0.56 fold
same,Fold Change,"Ovarian Tumor Cells; gene FGF2, Stat3 silencing vs control",0.68 fold
same,Fold Change,"Ovarian Tumor Cells; gene FOS, Stat3 silencing vs control",0.72 fold
same,Fold Change,"Ovarian Tumor Cells; gene HM OX1, Stat3 silencing vs control",1.79 fold
same,Fold Change,"Ovarian Tumor Cells; gene IGFBP3, Stat3 silencing vs control",0.45 fold
same,Fold Change,"Ovarian Tumor Cells; gene IL-1B, Stat3 silencing vs control",0.55 fold
same,Fold Change,"Ovarian Tumor Cells; gene IL-6, Stat3 silencing vs control",0.61 fold
same,Fold Change,"Ovarian Tumor Cells; gene KITLG, Stat3 silencing vs control",0.66 fold
same,Fold Change,"Ovarian Tumor Cells; gene NFKBIZ, Stat3 silencing vs control",0.65 fold
same,Fold Change,"Ovarian Tumor Cells; gene NQO1, Stat3 silencing vs control",0.55 fold
same,Fold Change,"Ovarian Tumor Cells; gene NRP1, Stat3 silencing vs control",0.67 fold
same,Fold Change,"Ovarian Tumor Cells; gene PLAUR, Stat3 silencing vs control",0.72 fold
same,Fold Change,"Ovarian Tumor Cells; gene PMAIP1, Stat3 silencing vs control",0.69 fold
same,Fold Change,"Ovarian Tumor Cells; gene PMEPA1, Stat3 silencing vs control",0.71 fold
same,Fold Change,"Ovarian Tumor Cells; gene PRKRA, Stat3 silencing vs control",0.68 fold
same,Fold Change,"Ovarian Tumor Cells; gene RASA1, Stat3 silencing vs control",0.68 fold
same,Fold Change,"Ovarian Tumor Cells; gene RTN1, Stat3 silencing vs control",1.37 fold
same,Fold Change,"Ovarian Tumor Cells; gene SFRP1, Stat3 silencing vs control",0.55 fold
same,Fold Change,"Ovarian Tumor Cells; gene SGK1, Stat3 silencing vs control",0.68 fold
same,Fold Change,"Ovarian Tumor Cells; gene SPARC, Stat3 silencing vs control",0.7 fold
same,Fold Change,"Ovarian Tumor Cells; gene SPP1, Stat3 silencing vs control",0.77 fold
same,Fold Change,"Ovarian Tumor Cells; gene STAT3, Stat3 silencing vs control",0.23 fold
same,Fold Change,"Ovarian Tumor Cells; gene TCF3, Stat3 silencing vs control",0.71 fold
same,Fold Change,"Ovarian Tumor Cells; gene TNFRSF11B, Stat3 silencing vs control",0.61 fold
same,Fold Change,"Ovarian Tumor Cells; gene TNFSF10, Stat3 silencing vs control",0.7 fold
same,Fold Change,"Ovarian Tumor Cells; gene XBP1, Stat3 silencing vs control",0.74 fold
same,increase in apoptosis compared to control,[4],3 fold
